Molecular target: T1, β3-AR (Homo sapiens, UniProt P13945)
T1 construct: Full-length β3-AR clones (402 amino acids) containing the last 6 amino acids of hβ3-AR are prepared; expressed in transfected cells; host or cells: CHO cells
Assay: cAMP accumulation (SPA) in CHO cells transfected with β3-AR
Assay type: cell-based
Conditions: for EC50: CHO cells transfected with human β3-AR, cAMP, 30 min incubation, 10^-9 to 10^-5 M; for IA(β3): maximal response relative to maximal response of isoproterenol at 10^-5 M
Procedure: The ability of the compounds of this invention to treat or inhibit disorders related to insulin resistance or hyperglycemia was confirmed with representative compounds of this invention in the following standard pharmacological test procedures, which measured the binding selectivity of the β1-, β2-, and β3-AR. Binding to the receptors was measured in Chinese Hamster ovary (CHO) cells that were transfected with β1-, β2-, and β3-AR's. The following briefly summarizes the procedures used and results obtained.
cDNA was constructed by ligating four polymerase chain reaction (PCR) products using the following primers: an ATG-Narl fragment, sense primer 5′-[…]3′ and anti-sense primer 5′ […]3′; a Narl-Accl fragment, 5′[…]3′ as sense and 5′[…]3′ as anti-sense primer; an Accli-Styl fragment, sense primer 5° […]3′ and anti-sense primer 5′[…]3′ and a Styl-TAG fragment, with sense primer 5° […]3′ and anti-sense primer 5° […]3′. The corresponding primer sequences are described in Mantzoros, C. S., et.al., Diabetes, 1996, 45, 909-914. The four fragments are ligated into a pUC 18 plasmid (Gibco-BRL) and sequenced. Full-length β3-AR clones (402 amino acids) containing the last 6 amino acids of hβ3-AR are prepared with the β3-βARpcDNA3 from ATTC.
Clones expressing receptor levels of 70 to 110 fmoles/mg protein were used in the test procedures. CHO cells were grown in 24-well tissue culture plates in Dulbecco's Modified Eagle Media with 10% fetal bovine serum, MEM non-essential amino acids, Penicillin-Streptomycin and Geneticin. On the day of test procedure, growth medium was replaced with preincubation media (Dulbecco's Modified Eagle Media) and incubated for 30 minutes at 37° C. Pre-incubation medium was replaced with 0.2 ml treatment medium containing DMEM media containing 250 μM IBMX (isobutyl-1-methylxantine) plus 1 mM ascorbic acid with test compound dissolved in DMSO. Test compounds were assayed over a concentration range of 10^−9 M to 10^−5M for β3-AR transfected cells and 10^−8 to 10^−4 M for […] transfected cells. Isoproterenol (10^−5 M) was used as an internal standard for comparison of activity. Cells were incubated at 37° C. on a rocker for 30 min with the β3-AR transfected cells and 15 min with β1-AR and β2-AR transfected cells. Incubation was stopped by the addition of 0.2N HCl and the acid was neutralized with 2.5N NaOH. The plates, containing the cells and neutralized media, were stored at −20° C. until ready to test for cAMP using the SPA test kit (Amersham).
Data collected from the SPA test procedure were analyzed as percent of the maximal isoproterenol response at 10^−5 M. Activity curves were plotted using the SAS statistical and graphics software.

T1 sequence (P13945 whole entry): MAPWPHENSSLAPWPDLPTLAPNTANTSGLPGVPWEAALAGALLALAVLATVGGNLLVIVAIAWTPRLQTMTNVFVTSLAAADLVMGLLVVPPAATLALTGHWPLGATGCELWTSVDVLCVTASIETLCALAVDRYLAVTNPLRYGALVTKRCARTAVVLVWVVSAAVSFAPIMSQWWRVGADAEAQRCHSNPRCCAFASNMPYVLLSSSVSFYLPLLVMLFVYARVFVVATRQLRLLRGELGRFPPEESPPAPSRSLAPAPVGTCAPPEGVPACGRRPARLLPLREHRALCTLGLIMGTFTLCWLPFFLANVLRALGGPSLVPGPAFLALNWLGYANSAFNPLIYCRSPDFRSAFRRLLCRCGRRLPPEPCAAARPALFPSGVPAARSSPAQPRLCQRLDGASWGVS

EC50 | IA(β3) | Molecule
0.04 µM | 1.1 | COC(=O)CC1Cc2ccc(-c3ccc(CNC[C@H](O)c4ccc(O)c(NS(C)(=O)=O)c4)cc3)cc2NC1=O (stereo partly drawn) [Example 1, [7-(4-{[(2R)-2-Hydroxy-2-(4-hvdroxy-3-methanesulfonylamino-phenyl)-ethylamino]-methyl}-phenyl)-2-oxo-1,2,3,4-tetrahydro-quinolin-3-yl]-acetic Acid Methyl Ester]
0.09 µM | 1.0 | CCOC(=O)CC1Cc2cc(-c3cccc(CNC[C@H](O)c4ccc(O)c(NS(C)(=O)=O)c4)c3)ccc2NC1=O (some centres unmarked) [Example 2]
0.06 µM | 1.0 | COC(=O)CC1Cc2ccc(-c3cccc(CNC[C@H](O)c4ccc(O)c(NS(C)(=O)=O)c4)c3)cc2NC1=O (stereo partly drawn) [Example 3, [7-(3-{[(2R)-2-Hydroxy-2-(4-hydroxy-3-methanesulfonylamino-phenyl)-ethylamino]-methyl}-phenyl)-2-oxo-1,2,3,4-tetrahydro-quinolin-3-yl]-acetic acid methyl ester]
0.07 µM | 1.0 | Ethyl [6-(4-{[(2R)-2-hydroxy-2-{4-hydroxy-3-[(methylsulfonyl)amino]-phenyl}ethyl)amino]methyl}phenyl)-2-oxo-1,2,3,4-tetrahydroquinolin-3-yl]acetate [Example 4]
